Measured values published in US20090044291A1, “DROUGHT-RESISTANT PLANTS AND METHOD FOR PRODUCING THE PLANTS” (D-Helix, priority 2006, published 2009).
“Also recorded” adds a separate entry of the source.

Columns and labels:
ABAR = target: T1, ABAR (Arabidopsis thaliana, UniProt Q9FNB0); assay: Preliminary ABA binding experiment with transgenic yeast extracts expressing ABAR cDNA
T1 construct: 6xHis; made in house; host or cells: transgenic yeast (Pichia methanolica), cell-free protein extracts

[1] = system: C-terminal portion of the broad bean ABAR or CHLH; assay: ABA binding to yeast-expressed C-terminal fragment of broad bean ABAR; design: species or system Vicia faba; details: data not shown
Description: So we designated it ABAR (for putative abscisic acid receptor). On the basis of the sequencing information, we isolated from broad bean leaves a complementary DNA fragment encoding the carboxy-terminal half of about 770 amino acids of the putative H subunit (CHLH) of the magnesium-protoporphyrin-IX chelatase (Mg-chelatase). CHLH has been reported to have multiple functions in plant cells. In addition to its enzymatic functions as a subunit of the Mg-chelatase in producing photosynthetic apparatus (Walker, C. J. et al., Biochem. J. 327:321-333 (1997)), CHLH has a key function in mediating plastid-to-nucleus signaling (Mochizuki, N. et al., Proc. Natl. Acad. Sci. USA 98:2053-2058 (2001); Surpin, M., et al., Plant Cell S327-S338 (2002); Strand, A., et al., Nature 421:79-83 (2003); Nott, A. et al., Annu. Rev. Plant Biol. 57:730-759 (2006)). […] The information from Vicia faba led us to analyse the functions of ABAR in ABA signalling in Arabidopsis thaliana.

Mg-chelatase = target: T2, Mg-chelatase (Arabidopsis thaliana, UniProt Q9FNB0); assay: Effects of ABA on Mg-chelatase activity in isolated chloroplasts; format: biochemical; details: chloroplasts pre-incubated 20 min with (±)-ABA
T2 construct: isolation of intact chloroplasts from 3-week-old gl1 plants; from tissue; host or cells: intact chloroplasts from 3-week-old Arabidopsis gl1 plants
T2 sequence (Q9FNB0 50-1381): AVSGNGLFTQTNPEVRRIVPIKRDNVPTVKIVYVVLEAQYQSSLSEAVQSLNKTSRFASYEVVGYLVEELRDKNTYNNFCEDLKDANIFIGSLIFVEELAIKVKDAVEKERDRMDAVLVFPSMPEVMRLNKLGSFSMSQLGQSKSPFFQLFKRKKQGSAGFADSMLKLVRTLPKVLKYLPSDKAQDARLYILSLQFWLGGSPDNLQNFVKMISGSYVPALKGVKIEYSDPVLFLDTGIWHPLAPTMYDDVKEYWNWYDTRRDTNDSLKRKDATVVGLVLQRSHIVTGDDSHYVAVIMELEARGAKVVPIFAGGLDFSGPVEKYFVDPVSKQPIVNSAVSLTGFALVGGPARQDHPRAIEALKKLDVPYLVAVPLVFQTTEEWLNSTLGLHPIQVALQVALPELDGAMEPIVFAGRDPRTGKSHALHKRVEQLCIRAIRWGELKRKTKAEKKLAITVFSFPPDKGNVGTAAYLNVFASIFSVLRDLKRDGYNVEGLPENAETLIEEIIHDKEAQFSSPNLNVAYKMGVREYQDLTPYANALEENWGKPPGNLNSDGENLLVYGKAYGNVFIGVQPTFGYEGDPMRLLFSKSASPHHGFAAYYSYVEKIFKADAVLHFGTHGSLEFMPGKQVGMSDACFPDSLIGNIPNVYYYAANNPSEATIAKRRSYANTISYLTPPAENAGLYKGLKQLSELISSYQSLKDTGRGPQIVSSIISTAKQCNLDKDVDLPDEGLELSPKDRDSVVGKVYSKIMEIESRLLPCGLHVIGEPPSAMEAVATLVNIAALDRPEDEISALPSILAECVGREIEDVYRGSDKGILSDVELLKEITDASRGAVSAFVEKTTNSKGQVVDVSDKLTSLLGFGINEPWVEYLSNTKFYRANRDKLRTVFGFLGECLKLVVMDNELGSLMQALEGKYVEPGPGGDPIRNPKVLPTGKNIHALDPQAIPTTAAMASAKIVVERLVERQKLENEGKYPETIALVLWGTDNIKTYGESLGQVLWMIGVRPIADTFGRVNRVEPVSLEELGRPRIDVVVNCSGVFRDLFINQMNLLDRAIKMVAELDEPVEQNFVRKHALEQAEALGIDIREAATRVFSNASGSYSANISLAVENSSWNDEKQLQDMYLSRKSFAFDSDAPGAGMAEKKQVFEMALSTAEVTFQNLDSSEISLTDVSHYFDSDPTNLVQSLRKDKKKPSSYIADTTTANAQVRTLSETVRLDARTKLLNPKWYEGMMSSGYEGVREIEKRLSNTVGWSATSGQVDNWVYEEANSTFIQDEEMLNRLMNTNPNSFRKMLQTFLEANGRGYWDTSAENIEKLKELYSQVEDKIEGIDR
Description: For the effects of ABA on Mg-chelatase activity in vitro, isolation of intact chloroplasts from 3-week-old gl1 plants and assays of both […] and Mg-chelatase activity were done essentially according to the method of Walker and Weinstein (Walker, C. J. et al., Plant Physiol. 95:1189-1196 (1991); Walker, C. J. et al., Proc. Natl. Acad. Sci. USA 88:5789-5793 (1991)). Briefly, the purified chloroplasts with high degree of intactness were pre-incubated for 20 min in the chloroplast isolation buffer supplemented with different concentrations of (±)-ABA. For assaying Mg-chelatase activity, reactions were started by addition of the ABA-pretreated plastids and terminated by addition of ice-cold acetone. All the manipulations were performed under dim light to prevent porphyrin-mediated photooxidative damage. After centrifugation, the green supernatant was reserved and diluted with 4 ml of 75% (v/v) acetone. The fluorescence of the product was read directly in this acetone extract.

In the case of CC1=CC(=O)CC(C)(C)C1(O)/C=C/C(C)=C\C(=O)O (stereo not drawn) [ABA, abscisic acid], the Kd (ABAR) is reported as 36 nM, the ABA binding [1] is reported as “binds ABA specifically” and the Mg-chelatase activity (Mg-chelatase) is reported as “stimulated; also recorded: enhances”.
